Laboratory results from patent US11938137B2, “Lipid prodrugs of mycophenolic acid and uses thereof” (PureTech LYT, Inc., priority 2017, dated 2024).

experiment: Lymphatic transport assay in mesenteric lymph-duct cannulated rats; assay type: in vivo, rat; settings: as E2 but dose 1 mg/rat; class symbols
Method: In order to assess the lymphatic transport of disclosed lipid prodrugs in rats, the mesenteric lymph ducts of the rats used in this study were cannulated to allow continual collection of mesenteric lymph. Lipid formulations containing the compound of interest were then administered to the animals, lymph was collected, and drug concentrations in the lymph samples were quantified.
Lipid-based formulations of the compounds of the invention or control compounds were prepared as previously described (Trevaskis, N. L. et al., Pharmaceutical Research, 2005, 22(11), 1863-1870, WO 2016/023082, and WO 2017/041139, hereby incorporated by reference.
In brief, either 1 or 2 mg of test prodrug, 40 mg oleic acid and 25 mg Tween 80 were mixed in a glass vial and incubated at 37° C. for 12-18 h to equilibrate. An aqueous phase consisting of 5.6 ml phosphate buffered saline (PBS, pH 7.4) was subsequently added to the lipid phase (MPA was dissolved in PBS for the preparation of MPA containing formulations) and the formulation emulsified by ultrasonication with a Misonix XL 2020 ultrasonic processor (Misonix, Farmingdale, NY, USA) equipped with a 3.2-mm microprobe tip running at 30% of the maximal amplitude of 240 μm and a frequency of 20 kHz for 2 min at room temperature. Doses for administering to more than one animal can be prepared in one batch by suitably increasing the quantities given above. Drug/prodrug concentrations in all formulations were verified using HPLC-MS.
Male Sprague-Dawley (SD) rats were selected for the lymphatic transport studies. Rats (typically 240-320 g) were maintained on a standard diet and fasted overnight with free access to water prior to experiments.
Anesthetized rats were placed on a heated pad at 37° C. and cannulas inserted into the duodenum (for formulation administration and rehydration), mesenteric lymph duct (for lymph collection), and carotid artery (in cases where blood collection was conducted). Post-surgery, rats were re-hydrated for 0.5 h via intraduodenal infusion of normal saline at 2.8 mL/h. The lipid formulations were infused into the duodenum at 2.8 mL/h for 2 h after which, normal saline was infused at 2.8 mL/h for the remainder of the experiment. Lymph was continuously collected for up to 8 h into pre-weighed Eppendorf tubes containing 10 μL of 1,000 IU/mL heparin. The collection tubes were changed hourly and lymph flow was measured gravimetrically. Aliquots of hourly lymph samples were stored at −20° C. prior to assay.
Drug concentration in lymph is expressed as total drug and includes free drug and drug associated with different glycerides. Lymph samples are first treated with a lipase or other appropriate conditions to liberate free active agent prior to measurement of active agent levels in the lymph. Treatment with a lipase or other hydrolysis conditions liberates free active agent from any corresponding re-esterified glycerides. Porcine pancreatic lipase is appropriate for this purpose. Alternatively, hydrolysis with 0.5 M NaOH may be used. For MPA “phenol” prodrugs (i.e. prodrugs linked to the triglyceride at the aromatic —OH group of MPA), hydrolysis was performed with 0.5 M NaOH except for the lymph samples collected from 3 rats in the group of compound I-20 (MPA-O-C12α′βMe-TG), which were hydrolyzed by porcine pancreatic lipase.
Transport of compounds into lymph during each hourly collection period was calculated from the product of the volume of lymph collected and the measured concentrations in lymph. For fluorescently-labelled compounds such as a BDP-conjugate, the concentrations of total compound may be measured by fluorescence spectroscopy without hydrolysis.
The results of the lymphatic transport assays are summarized in Table 2, below, and FIGS. 1-19. Table 2 summarizes lymphatic transport of total MPA related compound (% of administered dose) following intraduodenal infusion to anaesthetised, mesenteric lymph-duct cannulated rats. […]

Compound	Cumulative lymphatic transport % dose (Mean ± SD, or Range if n = 2)
CCCCCCCCCCCCCCCC(=O)OCC(COC(=O)CCCCCCCCCCCCCCC)OC(=O)CCCCCCCCCCCOC(=O)CC/C(C)=C/Cc1c(O)c2c(c(C)c1OC)COC2=O [I-37, (E)-2-((12-((6-(4-hydroxy-6-methoxy-7-methyl-3-oxo-1,3-dihydroisobenzofuran-5-yl)-4-methylhex-4-enoyl)oxy)dodecanoyl)oxy)propane-1,3-diyl dipalmitate]	A (greater than 10% (>10%))
CCCCCCCCCCCCCCCC(=O)OCC(COC(=O)CCCCCCCCCCCCCCC)OC(=O)CCCCCCCCCCCCCCCCCOC(=O)CC/C(C)=C/Cc1c(O)c2c(c(C)c1OC)COC2=O [I-38, (E)-2-((18-((6-(4-hydroxy-6-methoxy-7-methyl-3-oxo-1,3-dihydroisobenzofuran-5-yl)-4-methylhex-4-enoyl)oxy)octadecanoyl)oxy)propane-1,3-diyl dipalmitate]	B (between 1% and 10% (1%-10%))

same assay, conditions: total MPA related compound, intraduodenal infusion, anesthetised mesenteric lymph-duct cannulated rats; class symbols

Compound	Cumulative lymphatic transport % dose (Mean ± SD, or Range if n = 2)
CCCCCCCCCCCCCCCC(=O)OCC(COC(=O)CCCCCCCCCCCCCCC)OC(=O)CC(C)CCCC(=O)Oc1c(C/C=C(\C)CCC(=O)OC)c(OC)c(C)c2c1C(=O)OC2 (centres unmarked) [I-16, MPA-(O—C10bMe-2-TG)-OMe]	A (greater than 10% (>10%))
CCCCCCCCCCCCCCCC(=O)OCC(COC(=O)CCCCCCCCCCCCCCC)OC(=O)CCC(=O)Oc1c(C/C=C(\C)CCC(=O)OC)c(OC)c(C)c2c1C(=O)OC2 [I-17]	C (less than 1% and greater than 0.24% (<1% and >0.24%))
CCCCCCCCCCCCCCCC(=O)OCC(COC(=O)CCCCCCCCCCCCCCC)OC(=O)CCCCC(=O)Oc1c(C/C=C(\C)CCC(=O)OC)c(OC)c(C)c2c1C(=O)OC2 [I-18]	B (between 1% and 10% (1%-10%))
CCCCCCCCCCCCCCCC(=O)OCC(COC(=O)CCCCCCCCCCCCCCC)OC(=O)CC(C)CCCCCCCC(C)C(=O)OCOC(=O)Oc1c(C/C=C(\C)CCC(=O)OC)c(OC)c(C)c2c1C(=O)OC2 (centres unmarked) [I-21, (E)-12-(1,3-Bis(palmitoyloxy)propan-2-yl) 1-(((((6-methoxy-5-(6-methoxy-3-methyl-6-oxohex-2-en-1-yl)-7-methyl-3-oxo-1,3-dihydroisobenzofuran-4-yl)oxy)carbonyl)oxy)methyl) 2,10-dimethyldodecanedioate]	B (between 1% and 10% (1%-10%))
CCCCCCCCCCCCCCCC(=O)OCC(COC(=O)CCCCCCCCCCCCCCC)OCCCCOC(=O)CC/C(C)=C/Cc1c(O)c2c(c(C)c1OC)COC2=O [I-25, (E)-2-(4-((6-(4-hydroxy-6-methoxy-7-methyl-3-oxo-1,3-dihydroisobenzofuran-5-yl)-4-methylhex-4-enoyl)oxy)butoxy)propane-1,3-diyl dipalmitate]	C (less than 1% and greater than 0.24% (<1% and >0.24%))
CCCCCCCCCCCCCCCC(=O)OCC(COC(=O)CCCCCCCCCCCCCCC)OCCCCCCOC(=O)CC/C(C)=C/Cc1c(O)c2c(c(C)c1OC)COC2=O [I-26, (E)-2-((6-((6-(4-hydroxy-6-methoxy-7-methyl-3-oxo-1,3-dihydroisobenzofuran-5-yl)-4-methylhex-4-enoyl)oxy)hexyl)oxy)propane-1,3-diyl dipalmitate]	C (less than 1% and greater than 0.24% (<1% and >0.24%))
CCCCCCCCCCCCCCCC(=O)OCC(COC(=O)CCCCCCCCCCCCCCC)OC(=O)OCCCOC(=O)CC/C(C)=C/Cc1c(O)c2c(c(C)c1OC)COC2=O [I-27, (E)-2-(((3-((6-(4-hydroxy-6-methoxy-7-methyl-3-oxo-1,3-dihydroisobenzofuran-5-yl)-4-methylhex-4-enoyl)oxy)propoxy)carbonyl)oxy)propane-1,3-diyl dipalmitate]	B (between 1% and 10% (1%-10%))
CCCCCCCCCCCCCCCC(=O)OCC(COC(=O)CCCCCCCCCCCCCCC)OC(=O)CCc1ccc(OC(=O)CC/C(C)=C/Cc2c(O)c3c(c(C)c2OC)COC3=O)cc1 [I-28, (E)-2-((3-(4-((6-(4-hydroxy-6-methoxy-7-methyl-3-oxo-1,3-dihydroisobenzofuran-5-yl)-4-methylhex-4-enoyl)oxy)phenyl)propanoyl)oxy)propane-1,3-diyl dipalmitate]	B (between 1% and 10% (1%-10%))
CCCCCCCCCCCCCCCC(=O)OCC(COC(=O)CCCCCCCCCCCCCCC)OC(=O)CCCCCCCCCCC(=O)Oc1c(C/C=C(\C)CCC(=O)OC)c(OC)c(C)c2c1C(=O)OC2 [I-30, (E)-1-(1,3-bis(palmitoyloxy)propan-2-yl) 12-(6-methoxy-5-(6-methoxy-3-methyl-6-oxohex-2-en-1-yl)-7-methyl-3-oxo-1,3-dihydroisobenzofuran-4-yl) dodecanedioate]	A (greater than 10% (>10%))
CCCCCCCCCCCCCCCC(=O)OCC(COC(=O)CCCCCCCCCCCCCCC)OC(=O)CC(C)CCCCCCCCCCCC(=O)Oc1c(C/C=C(\C)CCC(=O)OC)c(OC)c(C)c2c1C(=O)OC2 (centres unmarked) [I-31, (E)-1-(1,3-bis(palmitoyloxy)propan-2-yl) 15-(6-methoxy-5-(6-methoxy-3-methyl-6-oxohex-2-en-1-yl)-7-methyl-3-oxo-1,3-dihydroisobenzofuran-4-yl) 3-methylpentadecanedioate]	A (greater than 10% (>10%))
CCCCCCCCCCCCCCCC(=O)OCC(COC(=O)CCCCCCCCCCCCCCC)OC(=O)CC(C)CCCCCCCC(C)C(=O)Oc1c(C/C=C(\C)CCC(=O)OCCN2CCOCC2)c(OC)c(C)c2c1C(=O)OC2 (centres unmarked) [I-32, (E)-12-(1,3-bis(palmitoyloxy)propan-2-yl) 1-(6-methoxy-7-methyl-5-(3-methyl-6-(2-morpholinoethoxy)-6-oxohex-2-en-1-yl)-3-oxo-1,3-dihydroisobenzofuran-4-yl) 2,10-dimethyldodecanedioate]	A (greater than 10% (>10%))
CCCCCCCCCCCCCCCC(=O)OCC(COC(=O)CCCCCCCCCCCCCCC)OC(=O)CCCCCCOC(=O)CC/C(C)=C/Cc1c(O)c2c(c(C)c1OC)COC2=O [I-36, (E)-2-((7-((6-(4-hydroxy-6-methoxy-7-methyl-3-oxo-1,3-dihydroisobenzofuran-5-yl)-4-methylhex-4-enoyl)oxy)heptanoyl)oxy)propane-1,3-diyl dipalmitate]	B (between 1% and 10% (1%-10%))
CCCCCCCCCCCCCCCC(=O)OCC(COP(=O)(O)OCC[N+](C)(C)C)OC(=O)CC/C(C)=C/Cc1c(O)c2c(c(C)c1OC)COC2=O (centres unmarked) [I-39]	C (less than 1% and greater than 0.24% (<1% and >0.24%))
CCCCCCCCCCCCCCCC(=O)OCC(COC(=O)CCCCCCCCCCCCCCC)OC(=O)C(C)CCCCCCCCC(C)C(=O)OCOc1c(C/C=C(\C)CCC(=O)OC)c(OC)c(C)c2c1C(=O)OC2 (centres unmarked) [I-41]	A (greater than 10% (>10%))
CCCC(=O)OCC(COC(=O)CCC)OC(=O)CC(C)CCCCCCCCCCCCOC(=O)CC/C(C)=C/Cc1c(O)c2c(c(C)c1OC)COC2=O (centres unmarked) [I-43]	A (greater than 10% (>10%))
CCCCCCCCCCCCCCCC(=O)OCC(COC(=O)CCCCCCCCCCCCCCC)OC(=O)CC(C)CCCCCCCC(C)C(=O)OCOc1c(C/C=C(\C)CCC(=O)OC)c(OC)c(C)c2c1C(=O)OC2 (centres unmarked) [I-44]	A (greater than 10% (>10%))
CCCCCCCCCCCCCCCC(=O)OCC(COC(=O)CCCCCCCCCCCCCCC)OC(=O)C(C)CCCCCCCC(=O)Oc1c(C/C=C(\C)CCC(=O)OC)c(OC)c(C)c2c1C(=O)OC2 (centres unmarked) [I-45]	A (greater than 10% (>10%))
CCCCCCCCCCCCCCCC(=O)OCC(COC(=O)CCCCCCCCCCCCCCC)OC(=O)CCCCCCCCCOC(=O)CC/C(C)=C/Cc1c(O)c2c(c(C)c1OC)COC2=O [I-46]	A (greater than 10% (>10%))
